Test results taken from US10015966B2, “Fungicidal pyrazole mixtures” (E I DU PONT DE NEMOURS AND COMPANY, priority 2012, dated 2018).

What was measured:
Type in all cases: in vivo
Septoria tritici = experiment: Test F: preventive spray on wheat seedlings, wheat leaf blotch, visual disease rating; conditions: Zymoseptoria tritici, 200 ppm test suspension
Method: General protocol for preparing test suspensions for Tests A-I: the test compounds were first dissolved in acetone in an amount equal to 3% of the final volume and then suspended at the desired concentration (in ppm) in acetone and purified water (50/50 mix by volume) containing 250 ppm of the surfactant Trem® 014 (polyhydric alcohol esters). The resulting test suspensions were then used in Tests A-I. Each test was conducted in triplicate, and the results were averaged. Spraying a 200 ppm test suspension to the point of run-off on the test plants was the equivalent of a rate of about 800 g/ha. Unless otherwise indicated, the rating values indicate a 200 ppm test suspension was used. (An asterisk “*” next to the rating value indicates a 40 ppm test suspension was used.) The test suspension was sprayed to the point of run-off on wheat seedlings. The following day the seedlings were inoculated with a spore suspension of Septoria tritici (the causal agent of wheat leaf blotch) and incubated in saturated atmosphere at 24° C. for 48 h. and then the seedlings were moved to a growth chamber at 20° C. for 19 additional days, after which time visual disease ratings were made. Results for Tests A-I are given in Table A. In the Table, a rating of 100 indicates 100% disease control and a rating of 0 indicates no disease control (relative to the controls). A hyphen (-) indicates no test results.

[1] = test system: Blumeria graminis f. sp. tritici; experiment: Test I: preventive spray on wheat seedlings, wheat powdery mildew, visual disease rating; conditions: 192 h, 200 ppm test suspension
Method: General protocol for preparing test suspensions for Tests A-I: the test compounds were first dissolved in acetone in an amount equal to 3% of the final volume and then suspended at the desired concentration (in ppm) in acetone and purified water (50/50 mix by volume) containing 250 ppm of the surfactant Trem® 014 (polyhydric alcohol esters). The resulting test suspensions were then used in Tests A-I. Each test was conducted in triplicate, and the results were averaged. Spraying a 200 ppm test suspension to the point of run-off on the test plants was the equivalent of a rate of about 800 g/ha. Unless otherwise indicated, the rating values indicate a 200 ppm test suspension was used. (An asterisk “*” next to the rating value indicates a 40 ppm test suspension was used.) The test suspension was sprayed to the point of run-off on wheat seedlings. The following day the seedlings were inoculated with a spore dust of Blumeria graminis f. sp. tritici (also known as Erysiphe graminis f. sp. tritici, the causal agent of wheat powdery mildew) and incubated in a growth chamber at 20° C. for 8 days, after which time visual disease ratings were made. Results for Tests A-I are given in Table A. In the Table, a rating of 100 indicates 100% disease control and a rating of 0 indicates no disease control (relative to the controls). A hyphen (-) indicates no test results.

Botrytis cinerea = experiment: Test A: preventive spray on tomato seedlings, tomato Botrytis, visual disease rating; conditions: 200 ppm test suspension
Method: General protocol for preparing test suspensions for Tests A-I: the test compounds were first dissolved in acetone in an amount equal to 3% of the final volume and then suspended at the desired concentration (in ppm) in acetone and purified water (50/50 mix by volume) containing 250 ppm of the surfactant Trem® 014 (polyhydric alcohol esters). The resulting test suspensions were then used in Tests A-I. Each test was conducted in triplicate, and the results were averaged. Spraying a 200 ppm test suspension to the point of run-off on the test plants was the equivalent of a rate of about 800 g/ha. Unless otherwise indicated, the rating values indicate a 200 ppm test suspension was used. (An asterisk “*” next to the rating value indicates a 40 ppm test suspension was used.) The test suspension was sprayed to the point of run-off on tomato seedlings. The following day the seedlings were inoculated with a spore suspension of Botrytis cinerea (the causal agent of tomato Botrytis) and incubated in saturated atmosphere at 20° C. for 48 h, and then moved to a growth chamber at 24° C. for 3 additional days, after which time visual disease ratings were made. Results for Tests A-I are given in Table A. In the Table, a rating of 100 indicates 100% disease control and a rating of 0 indicates no disease control (relative to the controls). A hyphen (-) indicates no test results.

Septoria nodorum = experiment: Test E: preventive spray on wheat seedlings, Septoria glume blotch, visual disease rating; conditions: 200 ppm test suspension, preventive spray
Method: General protocol for preparing test suspensions for Tests A-I: the test compounds were first dissolved in acetone in an amount equal to 3% of the final volume and then suspended at the desired concentration (in ppm) in acetone and purified water (50/50 mix by volume) containing 250 ppm of the surfactant Trem® 014 (polyhydric alcohol esters). The resulting test suspensions were then used in Tests A-I. Each test was conducted in triplicate, and the results were averaged. Spraying a 200 ppm test suspension to the point of run-off on the test plants was the equivalent of a rate of about 800 g/ha. Unless otherwise indicated, the rating values indicate a 200 ppm test suspension was used. (An asterisk “*” next to the rating value indicates a 40 ppm test suspension was used.) The test suspension was sprayed to the point of run-off on wheat seedlings. The following day the seedlings were inoculated with a spore suspension of Septoria nodorum (the causal agent of Septoria glume blotch) and incubated in a saturated atmosphere at 24° C. for 48 h, and then moved to a growth chamber at 20° C. for 9 days, after which time visual disease ratings were made. Results for Tests A-I are given in Table A. In the Table, a rating of 100 indicates 100% disease control and a rating of 0 indicates no disease control (relative to the controls). A hyphen (-) indicates no test results.

Alternaria solani = experiment: Test B: preventive spray on tomato seedlings, tomato early blight, visual disease rating; conditions: 200 ppm test suspension
Method: General protocol for preparing test suspensions for Tests A-I: the test compounds were first dissolved in acetone in an amount equal to 3% of the final volume and then suspended at the desired concentration (in ppm) in acetone and purified water (50/50 mix by volume) containing 250 ppm of the surfactant Trem® 014 (polyhydric alcohol esters). The resulting test suspensions were then used in Tests A-I. Each test was conducted in triplicate, and the results were averaged. Spraying a 200 ppm test suspension to the point of run-off on the test plants was the equivalent of a rate of about 800 g/ha. Unless otherwise indicated, the rating values indicate a 200 ppm test suspension was used. (An asterisk “*” next to the rating value indicates a 40 ppm test suspension was used.) The test suspension was sprayed to the point of run-off on tomato seedlings. The following day the seedlings were inoculated with a spore suspension of Alternaria solani (the causal agent of tomato early blight) and incubated in a saturated atmosphere at 27° C. for 48 h, and then moved to a growth chamber at 20° C. for 5 days, after which time visual disease ratings were made. Results for Tests A-I are given in Table A. In the Table, a rating of 100 indicates 100% disease control and a rating of 0 indicates no disease control (relative to the controls). A hyphen (-) indicates no test results.

Cc1nn(C)c(Nc2ccccc2F)c1-c1ccc(F)cc1Cl [Compound 1, 4-(2-chloro-4-fluorophenyl)-N-(2-fluorophenyl)-1,3-dimethyl-1H-pyrazol-5-amine]
pest or weed control at 200 ppm (Septoria tritici): 100%
pest or weed control at 200 ppm [1]: 100%
pest or weed control at 200 ppm (Botrytis cinerea): 99%
Test E rating (% disease control) (Septoria nodorum): 0%
Test B rating (% disease control) (Alternaria solani): 93%

Cc1nn(C)c(Nc2c(F)cccc2F)c1-c1ccc(F)cc1Cl [Compound 2, 4-(2-chloro-4-fluorophenyl)-N-(2,6-difluorophenyl)-1,3-dimethyl-1H-pyrazol-5-amine]
pest or weed control at 200 ppm (Septoria tritici): 100%
pest or weed control at 200 ppm [1]: 100%
pest or weed control at 200 ppm (Botrytis cinerea): 100%
Test E rating (% disease control) (Septoria nodorum): 87%
Test B rating (% disease control) (Alternaria solani): 100%

Cc1nn(C)c(Nc2c(F)cccc2Cl)c1-c1ccc(F)cc1Cl [Compound 3, 4-(2-chloro-4-fluorophenyl)-N-(2-chloro-6-fluorophenyl)-1,3-dimethyl-1H-pyrazol-5-amine]
pest or weed control at 200 ppm (Septoria tritici): 100%
pest or weed control at 200 ppm [1]: 99%
pest or weed control at 200 ppm (Botrytis cinerea): 100%
Test E rating (% disease control) (Septoria nodorum): 99%
Test B rating (% disease control) (Alternaria solani): 100%
